The subject of this experiment is lens. The experiment in a line: Pharmacological Test 5: lens elasticity, 1% ursodeoxycholic acid once-daily for 1, 3, 7, 10 or 14 days. The experiment is classed as in vivo, C57BL/6J mice. The conditions noted are these: for Lens elasticity improvement: 1% sample, QD, 24 h after final instillation, vs untreated group. Here is the method: A vehicle comprising 0.1% (w/v) of ethyl pyruvate, 0.269% (w/v) of sodium dihydrogenphosphate monohydrate (NaH2PO4H2O), 0.433% (w/v) of disodium hydrogenphosphate (Na2HPO4), 0.2% (w/v) of hydroxypropyl methylcellulose, 0.5% (w/v) of NaCl was prepared. Ursodeoxycholic acid was sonicated with the addition of the vehicle to prepare a 1.0% (w/v) suspension. The total amount of the sample to be used in one day was prepared before use. 1) The test sample (2.5 μL/eye) was instilled into both eyes of 8-month-old C57BL/6J mice with a Pipetman once per day (QD; around 13:30) for 1, 3, 7, 10, or 14 days. 2) Twenty-four hours after the final instillation, the mice were euthanized by carbon dioxide inhalation, and then the eyeballs were extracted and rinsed with Hank's balanced salt solution (HBSS). 3) The sclera near the optic nerve was cut with a razor, the lens was removed through the incision, and the removed lens was immersed in HBSS. 4) The lens was placed on a glass slide, and an all-in-one fluorescence microscope BZ-9000 (Keyence) was used to capture an image of the lens (image a). 5) Next, one cover glass (Corning^(registered trade mark) 22×22 mm Square) was placed on the lens, and an image in which the thickness of the lens changed due to the weight was similarly captured (Image b). 6) A change in the lens diameter was calculated from Equation 1 wherein the lens diameter of Image a is subtracted from the lens diameter of Image b, as described below. Then, the lens elasticity improvement of each sample group compared with the […] was calculated from Equation 2 described below. Each mean of the untreated group and each ursodeoxycholic acid sample group was based on 9 or 10 eyes. Change in lens diameter=Lens diameter in Image b of each test sample−Lens diameter in Image a of each test sample (Equation 1) Lens elasticity improvement of each sample group=Mean change in lens diameter of each Test sample group−Mean change in lens diameter of Untreated group (Equation 2)

SMILES strings stand for the structures.

With `C[C@H](CCC(=O)O)[C@H]1CC[C@H]2[C@@H]3[C@@H](O)C[C@@H]4C[C@H](O)CC[C@]4(C)[C@H]3CC[C@]12C` [ursodeoxycholic acid, 3α,7β-Dihydroxy-5β-cholan-24-oic acid], for the setting “1% sample instilled once-daily, by duration of instillation”, the “Lens elasticity improvement, in words” value was “showed definitely an improvement in lens elasticity after instillation for 3 days”. The Lens elasticity improvement by setting is: (1 day) 9.6 μm; (3 days) 21.1 μm; (7 days) 27.4 μm; (10 days) 38.1 μm; (14 days) 34.2 μm.

Values taken from patent publication US20230040386A1, “URSODEOXYCHOLIC ACID-CONTAINING AGENT FOR TREATING OR PREVENTING PRESBYOPIA” (priority 2018, published 2023).
